Source: BindingDB's records for doi:10.1016/j.bmcl.2003.09.069 (Sugen, 2003)

Test: Inhibitory activity against cellular Src protein tyrosine kinase using the actin ring assay

SMILES	IC50 [µM]
CNS(=O)(=O)c1ccc2c(c1)/C(=C/c1[nH]c3c(c1CN1CCOCC1)CCCC3)C(=O)N2 [3-[1-(3-Morpholin-4-ylmethyl-4,5,6,7-tetrahydro-1H-indol-2-yl)-meth-(Z)-ylidene]-2-oxo-2,3-dihydro-1H-indole-5-sulfonic acid methylamide]	1
CNS(=O)(=O)c1ccc2c(c1)/C(=C/c1[nH]c3c(c1CCCN1CCN(CCO)CC1)CCCC3)C(=O)N2 [3-[1-(3-{3-[4-(2-Hydroxy-ethyl)-piperazin-1-yl]-propyl}-4,5,6,7-tetrahydro-1H-indol-2-yl)-meth-(Z)-ylidene]-2-oxo-2,3-dihydro-1H-indole-5-sulfonic acid methylamide]	3
CCS(=O)(=O)c1ccc2c(c1)/C(=C/c1[nH]c3c(c1CCCN(C)C)CCCC3)C(=O)N2 [3-[1-[3-(3-Dimethylamino-propyl)-4,5,6,7-tetrahydro-1H-indol-2-yl]-meth-(Z)-ylidene]-5-ethanesulfonyl-1,3-dihydro-indol-2-one]	0.5
CNS(=O)(=O)c1ccc2c(c1)/C(=C/c1[nH]c3c(c1CCCN1CCOCC1)CCCC3)C(=O)N2 [3-[1-[3-(3-Morpholin-4-yl-propyl)-4,5,6,7-tetrahydro-1H-indol-2-yl]-meth-(Z)-ylidene]-2-oxo-2,3-dihydro-1H-indole-5-sulfonic acid methylamide]	0.1
CNS(=O)(=O)c1ccc2c(c1)/C(=C/c1[nH]c3c(c1CCCN1CCC(O)CC1)CCCC3)C(=O)N2 [3-[1-{3-[3-(4-Hydroxy-piperidin-1-yl)-propyl]-4,5,6,7-tetrahydro-1H-indol-2-yl}-meth-(Z)-ylidene]-2-oxo-2,3-dihydro-1H-indole-5-sulfonic acid methylamide]	0.9
CNS(=O)(=O)c1ccc2c(c1)/C(=C/c1[nH]c3c(c1CCCN1CCN(C)CC1)CCCC3)C(=O)N2 [3-[1-{3-[3-(4-Methyl-piperazin-1-yl)-propyl]-4,5,6,7-tetrahydro-1H-indol-2-yl}-meth-(Z)-ylidene]-2-oxo-2,3-dihydro-1H-indole-5-sulfonic acid methylamide]	0.1
CCS(=O)(=O)c1ccc2c(c1)/C(=C/c1[nH]c3c(c1CCC(N)=O)CCCC3)C(=O)N2 [3-{2-[5-Ethanesulfonyl-2-oxo-1,2-dihydro-indol-(3Z)-ylidenemethyl]-4,5,6,7-tetrahydro-1H-indol-3-yl}-propionamide]	> 10
CNS(=O)(=O)c1ccc2c(c1)/C(=C/c1[nH]c3c(c1CCC(N)=O)CCCC3)C(=O)N2 [3-{2-[5-Methylsulfamoyl-2-oxo-1,2-dihydro-indol-(3Z)-ylidenemethyl]-4,5,6,7-tetrahydro-1H-indol-3-yl}-propionamide]	> 10
CCS(=O)(=O)c1ccc2c(c1)/C(=C/c1[nH]c3c(c1CN1CCOCC1)CCCC3)C(=O)N2 [5-Ethanesulfonyl-3-[1-(3-morpholin-4-ylmethyl-4,5,6,7-tetrahydro-1H-indol-2-yl)-meth-(Z)-ylidene]-1,3-dihydro-indol-2-one]	5
CCS(=O)(=O)c1ccc2c(c1)/C(=C/c1[nH]c3c(c1CCCN1CCN(CCO)CC1)CCCC3)C(=O)N2 [5-Ethanesulfonyl-3-[1-(3-{3-[4-(2-hydroxy-ethyl)-piperazin-1-yl]-propyl}-4,5,6,7-tetrahydro-1H-indol-2-yl)-meth-(Z)-ylidene]-1,3-dihydro-indol-2-one]	1.7
CCS(=O)(=O)c1ccc2c(c1)/C(=C/c1[nH]c3c(c1CCCN1CCC(O)CC1)CCCC3)C(=O)N2 [5-Ethanesulfonyl-3-[1-{3-[3-(4-hydroxy-piperidin-1-yl)-propyl]-4,5,6,7-tetrahydro-1H-indol-2-yl}-meth-(Z)-ylidene]-1,3-dihydro-indol-2-one]	0.8
CCS(=O)(=O)c1ccc2c(c1)/C(=C/c1[nH]c3c(c1CCCN1CCN(CC(=O)O)CC1)CCCC3)C(=O)N2 [[4-(3-{2-[5-Ethanesulfonyl-2-oxo-1,2-dihydro-indol-(3Z)-ylidenemethyl]-4,5,6,7-tetrahydro-1H-indol-3-yl}-propyl)-piperazin-1-yl]-acetic acid]	10
CCOC(=O)CN1CCN(CCCc2c(/C=C3\C(=O)Nc4ccc(S(=O)(=O)NC)cc43)[nH]c3c2CCCC3)CC1 [[4-(3-{2-[5-Methylsulfamoyl-2-oxo-1,2-dihydro-indol-(3Z)-ylidenemethyl]-4,5,6,7-tetrahydro-1H-indol-3-yl}-propyl)-piperazin-1-yl]-acetic acid ethyl ester]	0.9
CNS(=O)(=O)c1ccc2c(c1)/C(=C/c1[nH]c3c(c1CCCN1CCN(CC(=O)O)CC1)CCCC3)C(=O)N2 [[4-(3-{2-[5-Methylsulfamoyl-2-oxo-1,2-dihydro-indol-(3Z)-ylidenemethyl]-4,5,6,7-tetrahydro-1H-indol-3-yl}-propyl)-piperazin-1-yl]-acetic acid]	> 10
